Test results as given in paper PMC6864537, “Novel Thiazolidin-4-ones as Potential Non-Nucleoside Inhibitors of HIV-1 Reverse Transcriptase” (Molecules, 2019).

Molecular target: T1, HIV-1 Reverse Transcriptase (Human immunodeficiency virus type 1 group M subtype B, UniProt P03366)
T1 construct: Lys101, Val179 (p66 subunit) and Glu138 (p51 subunit); purchased Roche
Test: HIV-1 RT inhibitory action, colorimetric photometric immunoassay kit (Roche)
Format: biochemical
Conditions: for IC50: IC50 (μM), 45 min pre-incubation, 2 h at 37 °C
Method: For the evaluation of the HIV-1 Reverse Transcriptase activity, the colorimetric photometric immunoassay kit provided by Roche was used. A two hours incubation at 37 °C was performed, as previously described in our paper following a pre-incubation step in which reverse transcriptase was incubated in the presence of the potential inhibitor for 45 min at room temperature before the addition of the substrate. The total-activity was measured in the absence of inhibitors (compounds) with the addition of an equal volume of the solvent of the compounds to the reaction mixture. For the determination of enzyme activity, incubation in the absence of enzyme was used as blank. Different inhibitor concentrations were added for the calculation of IC50 values.

CCOc1ccc2nc(N3C(=O)CSC3c3ccc(Cl)cc3)sc2c1 (stereo not shown) [Compound 26, 3-(6-Ethoxy-benzo[d]thiazol-2-yl)-2-(4-chlorophenyl)thiazolidin-4-one]
inhibition at 4 µM: 73%
IC50: 2.48 µM

COc1ccc(C2SCC(=O)N2c2nc3ccc(OC)cc3s2)cc1 (stereo not shown) [Compound 23, 3-(6-Methoxy-benzo[d]thiazol-2-yl)-2-(4-methoxyphenyl)thiazolidin-4-one]
inhibition at 4 µM: 73%
IC50: 2.39 µM

COc1cccc2sc(N3C(=O)CSC3c3ccc(F)cc3)nc12 (stereo not shown) [Compound 15, 3-(4-Methoxy-benzo[d]thiazol-2-yl)-2-(4-flurophenyl)thiazolidin-4-one]
inhibition at 4 µM: 69%
IC50: 2.08 µM

COc1ccc(C2SCC(=O)N2c2nc3c(Cl)cccc3s2)cc1 (stereo not shown) [Compound 13, 3-(4-Chloro-benzo[d]thiazol-2-yl)-2-(4-methoxyphenyl)thiazolidin-4-one]
inhibition at 4 µM: 65%
IC50: 1.99 µM

O=C1CSC(c2ccc([N+](=O)[O-])cc2)N1c1nc2ccc(F)cc2s1 (stereo not shown) [Compound 4, 3-(6-Fluoro-benzo[d]thiazol-2-yl)-2-(4-nitrophenyl)thiazolidin-4-one]
inhibition at 4 µM: 54%
IC50: 3.8 µM

O=C1CSC(c2ccc(Cl)cc2)N1c1nc2ccc(F)cc2s1 (stereo not shown) [Compound 5, 3-(6-Fluoro-benzo[d]thiazol-2-yl)-2-(4-chlorophenyl)thiazolidin-4-one]
inhibition at 4 µM: 44%
IC50: > 4 µM

O=C1CSC(c2ccc(F)cc2)N1c1nc2c(Cl)cccc2s1 (stereo not shown) [Compound 10, 3-(4-Chloro-benzo[d]thiazol-2-yl)-2-(4-fluorophenyl)thiazolidin-4-one]
inhibition at 4 µM: 63%
IC50: 0.001 µM

CCOc1ccc2nc(N3C(=O)CSC3c3ccc([N+](=O)[O-])cc3)sc2c1 (stereo not shown) [Compound 25, 3-(6-Ethoxy-benzo[d]thiazol-2-yl)-2-(4-nitrophenyl)thiazolidin-4-one]
inhibition at 4 µM: 44%
IC50: > 4 µM

O=C1CSC(c2ccc(F)cc2)N1c1nc2ccc(F)cc2s1 (stereo not shown) [Compound 3, 3-(6-Fluoro-benzo[d]thiazol-2-yl)-2-(4-fluorophenyl)thiazolidin-4-one]
inhibition at 4 µM: 72%
IC50: 0.15 µM

O=C1CSC(c2ccc(F)cc2)N1c1nc2ccc(Cl)cc2s1 (stereo not shown) [Compound 8, 3-(6-Chloro-benzo[d]thiazol-2-yl)-2-(4-fluorophenyl)thiazolidin-4-one]
inhibition at 4 µM: 83%
IC50: 0.26 µM

O=C1CSC(c2ccc(O)cc2)N1c1nc2c(Cl)cccc2s1 (stereo not shown) [Compound 14, 3-(4-Chloro-benzo[d]thiazol-2-yl)-2-(4-hydroxyphenyl)thiazolidin-4-one]
inhibition at 4 µM: 83%
IC50: 0.01 µM

COc1cccc2sc(N3C(=O)CSC3c3ccc(O)cc3)nc12 (stereo not shown) [Compound 19, 3-(4-Methoxy-benzo[d]thiazol-2-yl)-2-(4-hydroxyphenyl)thiazolidin-4-one]
inhibition at 4 µM: 71%
IC50: 2.62 µM

COc1cccc2sc(N3C(=O)CSC3c3ccc([N+](=O)[O-])cc3)nc12 (stereo not shown) [Compound 16, 3-(4-Methoxy-benzo[d]thiazol-2-yl)-2-(4-nitrophenyl)thiazolidin-4-one]
inhibition at 4 µM: 68%
IC50: 2.2 µM

CCOc1ccc2nc(N3C(=O)CSC3c3ccc(O)cc3)sc2c1 (stereo not shown) [Compound 28, 3-(6-Ethoxy-benzo[d]thiazol-2-yl)-2-(4-hydroxyphenyl)thiazolidin-4-one]
inhibition at 4 µM: 62%
IC50: 2 µM

O=C1CSC(c2cccc(Cl)c2Cl)N1c1nc2ccc(OC(F)(F)F)cc2s1 (stereo not shown) [Compound 30, 3-(6-Trifluoromethoxy-benzo[d]thiazol-2-yl)-2-(2,3-dichlorophenyl) thiazolidin-4-one]
inhibition at 4 µM: 46%
IC50: > 4 µM

O=C1CSC(c2ccc([N+](=O)[O-])cc2)N1c1nc2ccc(OC(F)(F)F)cc2s1 (stereo not shown) [Compound 31, 3-(6-Trifluoromethoxy-benzo[d]thiazol-2-yl)-2-(4-nitrophenyl)thiazolidin-4-one]
inhibition at 4 µM: 46%
IC50: > 4 µM

COc1cccc2sc(N3C(=O)CSC3c3ccc(Cl)cc3)nc12 (stereo not shown) [Compound 17, 3-(4-Methoxy-benzo[d]thiazol-2-yl)-2-(4-chlorophenyl)thiazolidin-4-one]
inhibition at 4 µM: 67%
IC50: 2.6 µM

O=C1CSC(c2c(Cl)cccc2Cl)N1c1nc2ccc(OC(F)(F)F)cc2s1 (stereo not shown) [Compound 29, 3-(6-Trifluoromethoxy-benzo[d]thiazol-2-yl)-2-(2,6-dichlorophenyl) thiazolidin-4-one]
inhibition at 4 µM: 49%
IC50: 4.28 µM

O=C1CSC(c2ccc(Cl)cc2)N1c1nc2c(Cl)cccc2s1 (stereo not shown) [Compound 12, 3-(4-Chloro-benzo[d]thiazol-2-yl)-2-(4-chlorophenyl)thiazolidin-4-one]
inhibition at 4 µM: 50%
IC50: 4 µM

COc1ccc2nc(N3C(=O)CSC3c3ccc(Cl)cc3)sc2c1 (stereo not shown) [Compound 22, 3-(6-Methoxy-benzo[d]thiazol-2-yl)-2-(4-chlorophenyl)thiazolidin-4-one]
inhibition at 4 µM: 72%
IC50: 2.76 µM

O=C1CSC(c2ccc(Cl)cc2)N1c1nc2ccc(OC(F)(F)F)cc2s1 (stereo not shown) [Compound 32, 3-(6-Trifluoromethoxy-benzo[d]thiazol-2-yl)-2-(4-chlorophenyl)thiazolidin-4-one]
inhibition at 4 µM: 46%
IC50: > 4 µM

COc1ccc(C2SCC(=O)N2c2nc3c(OC)cccc3s2)cc1 (stereo not shown) [Compound 18, 3-(4-Methoxy-benzo[d]thiazol-2-yl)-2-(4-methoxyphenyl)thiazolidin-4-one]
inhibition at 4 µM: 72%
IC50: 2.69 µM

CCOc1ccc2nc(N3C(=O)CSC3c3ccc(F)cc3)sc2c1 (stereo not shown) [Compound 24, 3-(6-Ethoxy-benzo[d]thiazol-2-yl)-2-(4-fluorophenyl)thiazolidin-4-one]
inhibition at 4 µM: 36%
IC50: > 4 µM

O=C1CSC(c2c(F)cccc2F)N1c1nc2cccc(Cl)c2s1 (stereo not shown) [Compound 1, 3-(7-Chloro-benzo[d]thiazol-2-yl)-2-(2,6-difluorophenyl)thiazolidin-4-one]
inhibition at 4 µM: 70%
IC50: 0.21 µM

O=C1CSC(c2ccc(O)cc2)N1c1nc2ccc(F)cc2s1 (stereo not shown) [Compound 7, 3-(6-Fluoro-benzo[d]thiazol-2-yl)-2-(4-hydroxyphenyl)thiazolidin-4-one]
inhibition at 4 µM: 50%
IC50: 4 µM

O=C1CSC(c2c(F)cccc2Cl)N1c1nc2cccc(Cl)c2s1 (stereo not shown) [Compound 2, 3-(7-Chloro-benzo[d]thiazol-2-yl)-2-(2-chloro-6-fluorophenyl)thiazolidin-4-one]
inhibition at 4 µM: 72%
IC50: 0.0047 µM

COc1ccc2nc(N3C(=O)CSC3c3ccc(F)cc3)sc2c1 (stereo not shown) [Compound 20, 3-(6-Methoxy-benzo[d]thiazol-2-yl)-2-(4-fluorophenyl)thiazolidin-4-one]
inhibition at 4 µM: 55%
IC50: 1.51 µM

O=C1CSC(c2ccc([N+](=O)[O-])cc2)N1c1nc2c(Cl)cccc2s1 (stereo not shown) [Compound 11, 3-(4-Chloro-benzo[d]thiazol-2-yl)-2-(4-nitrophenyl)thiazolidin-4-one]
inhibition at 4 µM: 40%
IC50: > 4 µM

CCOc1ccc2nc(N3C(=O)CSC3c3ccc(OC)cc3)sc2c1 (stereo not shown) [Compound 27, 3-(6-Ethoxy-benzo[d]thiazol-2-yl)-2-(4-methoxyphenyl)thiazolidin-4-one]
inhibition at 4 µM: 76%
IC50: 1.93 µM

COc1ccc2nc(N3C(=O)CSC3c3ccc([N+](=O)[O-])cc3)sc2c1 (stereo not shown) [Compound 21, 3-(6-Methoxy-benzo[d]thiazol-2-yl)-2-(4-nitrophenyl)thiazolidin-4-one]
inhibition at 4 µM: 50%
IC50: 4 µM

O=C1CSC(c2ccc(O)cc2)N1c1nc2ccc(Cl)cc2s1 (stereo not shown) [Compound 9, 3-(6-Chloro-benzo[d]thiazol-2-yl)-2-(4-hydroxyphenyl)thiazolidin-4-one]
inhibition at 4 µM: 56%
IC50: 0.001 µM

COc1ccc(C2SCC(=O)N2c2nc3ccc(F)cc3s2)cc1 (stereo not shown) [Compound 6, 3-(6-Fluoro-benzo[d]thiazol-2-yl)-2-(4-methoxyphenyl)thiazolidin-4-one]
inhibition at 4 µM: 35%
IC50: > 4 µM
